Where a name gives a salt, the structure may show the parent alone.
Columns and labels:
[1] = test system: TNFα gene expression in U87MG xenograft; experiment: Inhibition of TNFα induced TNFα gene expression in U87MG xenograft; format: in vivo, Balb/c athymic nude mice
Procedure: TNFα stimulates IKKβ signaling and triggers TNFα gene expression. In order to confirm that a compound is targeting IKKβ in vivo, the compound is screened for its ability to inhibit TNFα induced TNFα gene expression in a U87MG (human glioblastoma cell line) xenograft. 3×10^6 U87MG tumor cells are implanted subcutaneously into the right lateral flank of female Balb/c athymic nude mice (6-8 weeks old). […] Nude mice are orally administered with the test compound at 2 h prior to tumor harvesting. TNFα (R&D, Cat: 210-TA) is intravenously injected at 1 h before tumor harvesting at 8 μg/kg.
Total RNA is extracted using the RNEASY® mini Kit (QIAGEN®, Cat: 74126). cDNA is synthesized using the High Capacity cDNA reverse transcription kit (ABI, Cat: 4368813). Quantitative real-time PCR is carried out in a 7500 real-time PCR system (Applied Biosystems) using the corresponding primers/probes for human GAPDH gene(ABI Hs99999905_ml) and human TNFα gene(ABI Hs00174128_ml) and ABgene Absolute QPCR ROX 2× master mix(AB-1139/B).
TNFα gene expression is normalized to β-actin gene expression. The gene counts are read from PCR machine Inhibition (%)=(Counts of Model—Counts of Treatment)/(Counts of Model-Counts of Control)×100%. Example 1 is specifically detailed in Table 3.

[2] = test system: LPS-induced plasma TNFα production; experiment: LPS-induced plasma cytokine production in mouse, TNFα; format: in vivo, Balb/c mice
Procedure: Balb/c mice (female, body weight from 18 to 20 g) are used in these experiments. The dose dependency, time course study and pharmacokinetic/pharmacodynamic relationship of the test compound are conducted in mice treated with LPS (0.4 mg/kg).
Eight mice/group are administrated with 1 to 100 mg/kg of either the test compound (suspension in 10% acacia) or vehicle by oral gavage at 1 h prior to intraperitoneal injection of 0.4 mg/kg LPS. Ninety minutes after LPS administration, blood samples are collected in tubes containing heparin for anticoagulation. Plasma samples are diluted 3-fold with dilution buffer (R&D, Cat.No. Part 895206, Calibrator Diluent RD5Z). TNFα levels are measured using ELISA kit (R&D, Cat.No. MTA00) based on manufacture's protocol. Data is acquired using a SPECTRAMAX® M2e Plus Plate Reader and analyzed by standard curve fitting.
Alternately, the compound is screened for its ability to inhibit the LPS-induced cytokine production in rat plasma according to the method reported in the literature (Ziegelbauer K, Gantner F, Lukacs N W, et al. Br J. Pharmacol. 2005,145(2):178-92). Briefly, Lewis rats (male, body weight 140 g-180 g) are used in the experiments. Animals (8/group) are given 1 to 100 mg/kg of the testing compound (suspension in 35% solutol & 60% PEG400 & 5% PG) or vehicle by oral gavage at 1 h prior to intraperitoneal administration of LPS 0.4 mg/kg. Ninety minutes after the intraperitoneal administration of LPS, blood is collected in heparin anticoagulated tubes to measure TNFα using R&D System ELISA Kit based on the general Kit protocols. The plasma sample is diluted 100 fold with the dilution buffer and 50 μL of diluted sample is used in each measurement. The plate is read on a SPECTRAMAX® M2e Plus Plate Reader and TNFα levels are analyzed based on the standard curve. The drug levels in plasma are measured with LC-MS-MS. […] Alternately, the compound is screened for its ability to inhibit the LPS-induced cytokine production in mouse plasma. Balb/c mice (female, body weight 18-20 g) are used in the experiments. Mice (8/group) are administrated with 1 to 100 mg/kg of the test compound (suspension in 10% acacia) or vehicle by oral gavage at 1 h prior to introperitoneal (i.p.) administration of LPS (0.4 mg/kg). Ninety minutes after LPS administration, blood is collected with heparin anticoagulated tubes to measure TNFα levels (R&D, Cat.No. MTA00), IL-6 (R&D, Cat.No. M6000B) and IL-1β (R&D, Cat.No. MLB00B) based on the general kit protocols. Diluted or undiluted plasma samples of 50 μL are used for each measurement. […] The plate is read on a SPECTRMAX® M2e Plus Plate Reader and the data is analyzed using a standard curve.

[3] = test system: HT-29 human colon cancer xenograft; experiment: Anti-tumor effects in human colon cancer HT-29 xenograft with/without CPT-11; format: in vivo, Balb/c nu/nu mice
Procedure: IKKβ inhibitor has been reported to repress the HT-29 tumor growth when in combination with CPT-11 (Lagadec P, Griessinger E, Nawrot M P, et al. Br. J. Cancer (2008) 98, 335-344). The anti-tumor effect of the compound is then examined in a human colon cancer HT-29 xenograft in combination with CPT-11. The compound is tested for its anti-tumor effects in a human colon cancer HT-29 xenograft with/without the co-administration of CPT-11 essentially as described in a method reported in the literature (Lagadec P, Griessinger E, Nawrot M P, et al. Br. J. Cancer (2008) 98, 335-344).
The HT-29 human colorectal adenocarcinoma cell line is obtained from ATCC and cultured in McCoy's 5a medium containing 10% fetal calf serum. Male Balb/c nu/nu mice (6-7 weeks old) are injected subcutaneously in the right lateral flank with 0.1 mL of cell suspension containing 3.0×10^6 cells. Mice are divided into six groups, seven days after cell implantation. The test compound is orally administered twice a day at 60 and 20 mg/kg. CPT-11 at 20 mg/kg is peritoneally administered twice a week. In combination treatment, CPT-11 is given 1 h after the administration of the test compound. […] Two orthogonal diameters of the tumor are measured with digital vernier calipers three times a week. Tumor volume (TV) is measured and recorded during treatment period by the formula: TV=LengthxWidth^2/2. […]

[4] = mouse, oral 1 h before LPS 0.4 mg/kg i.p.

EC50 [2, 4] | SMILES | Inhibition Rate (%) of TNFα induced TNFα gene expression ([1]; Table 4, 3 mg/kg oral) | Inhibition Rate (%) of TNFα induced TNFα gene expression ([1]; Table 4, 10 mg/kg oral) | Inhibition Rate (%) of TNFα induced TNFα gene expression ([1]; Table 4, 30 mg/kg oral) | Inhibition Rate (%) of TNFα induced TNFα gene expression ([1]; Table 4, 60 mg/kg oral) | ED50 [2, 4] | Inhibition Rate (%) of TNFα induced TNFα gene expression ([1]; 10 mg/kg oral, 2 h) | Inhibition Rate (%) of TNFα induced TNFα gene expression ([1]; 30 mg/kg oral, 2 h) | Inhibition Rate (%) of TNFα induced TNFα gene expression ([1]; 60 mg/kg oral, 2 h) | Inhibition Rate (%) of TNFα induced TNFα gene expression ([1]; 100 mg/kg oral, 2 h) | HT-29 tumor growth, combination with CPT-11 ([3]; 60 or 20 mg/kg p.o. + CPT-11 20 mg/kg i.p., P<0.05) | HT-29 tumor growth, single agent ([3]; 60 or 20 mg/kg, p.o., twice a day) | plasma TNFα level ([2]; 10 mg/kg oral 1 h before LPS 0.4 mg/kg, 90 min after LPS, baseline 2346.2 pg/mL) | inhibition at 10 mg/kg ([2]; Mus musculus, 10 mg/kg oral 1 h before LPS 0.4 mg/kg, p<0.01)
~2.42 µg/mL | Cl.O=C(NC1CC1)c1cccc2[nH]c(-c3nc(N[C@@H]4CCC[C@H]4O)ncc3Cl)cc12 [Example 2, 2-{5-Chloro-2-[(1R,2R)-2-hydroxycyclopentylamino]pyrimidin-4-yl}-N-cyclopropyl-1H-indole-4-carboxamide hydrochloride] | 10.7% | 25.3% | 69.7% | 87.8% | 4.84 mg/kg | – | – | – | – | – | – | – | –
– | O=C(NC1CC1)c1cccc2[nH]c(-c3nc(N[C@@H]4CCC[C@@H]4O)ncc3Cl)cc12 [Example 1, 2-{5-Chloro-2-[(1R,2S)-2-hydroxycyclopentylamino]pyrimidin-4-yl}-N-cyclopropyl-1H-indole-4-carboxamide hydrochloride] | – | – | – | – | – | 49.1% | 68.5% | 86.2% | 94.9% | enhances the anti-tumor effect of CPT-11 | does not inhibit HT-29 tumor growth | 1474.9 pg/mL | 37.1%

Source: US8501166B2, “Pyrimidinyl indole compounds” (Hutchison Medipharma Limited, priority 2010, dated 2013)
